{"source": "ChEMBL document CHEMBL5725469", "about": "“C17-aryl substituted betulinic acid analogs” (2018)", "note": "pEC50: −log10 of the molar value.", "data": [{"assay": "HIV cell culture assay: MT-2 cells and 293T cells were obtained from the NIH AIDS Research and Reference Reagent Program. MT-2 cells were propagated in RPMI 1640 media supplemented with 10% heat inactivated fetal bovine serum, 100 μg/mL penicillin G and up to 100 units/mL streptomycin. The 293T cells were propagated in DMEM media supplemented with 10% heat inactivated fetal bovine serum (FBS), 100 units/mL penicillin G and 100 μg/mL streptomycin. The proviral DNA clone of NL4-3 was obtained from the NIH AIDS Research and Reference Reagent Program. A recombinant NL4-3 virus, in which a section of the nef gene from NL4-3 was replaced with the Renilla luciferase gene, was used as a reference virus. In addition, residue Gag P373 was converted to P373S. Briefly, the recombinant virus was prepared by transfection of the altered proviral clone of NL4-3. Transfections were performed in 293T cells using LipofectAMINE PLUS from Invitrogen (Carlsbad, Calif.), according to manufacturer's instruction. The virus was titered in MT-2 cells using luciferase enzyme activity as a marker. Luciferase was quantitated using the Dual Luciferase kit from Promega (Madison, Wis.), with modifications to the manufacturer's protocol. The diluted Passive Lysis solution was pre-mixed with the re-suspended Luciferase Assay Reagent and the re-suspended Stop & Glo Substrate (2:1:1 ratio). Fifty (50) μL of the mixture was added to each aspirated well on assay plates and luciferase activity was measured immediately on a Wallac TriLux (Perkin-Elmer). Antiviral activities of inhibitors toward the recombinant virus were quantified by measuring luciferase activity in cells infected for 4-5 days with NLRluc recombinants in the presence serial dilutions of the inhibitor.", "assay_type": "cell-based", "values": [{"smiles": "C=C(C)[C@@H]1CC[C@]2(c3ncnn3C)CC[C@]3(C)[C@H](CC[C@@H]4[C@@]5(C)CC=C(c6ccc(C(=O)O)cc6)C(C)(C)[C@@H]5CC[C@]43C)[C@@H]12", "pEC50": "< 7.00"}, {"smiles": "C=C(C)[C@@H]1CC[C@]2(c3nnc(CN(C)C)o3)CC[C@]3(C)[C@H](CC[C@@H]4[C@@]5(C)CC=C(c6ccc(C(=O)O)cc6)C(C)(C)[C@@H]5CC[C@]43C)[C@@H]12", "pEC50": "< 7.00"}, {"smiles": "C=C(C)[C@@H]1CC[C@]2(c3nc[nH]n3)CC[C@]3(C)[C@H](CC[C@@H]4[C@@]5(C)CC=C(c6ccc(C(=O)O)cc6)C(C)(C)[C@@H]5CC[C@]43C)[C@@H]12", "pEC50": "< 7.00"}, {"smiles": "C=C(C)[C@@H]1CC[C@]2(c3nnco3)CC[C@]3(C)[C@H](CC[C@@H]4[C@@]5(C)CC=C(c6ccc(C(=O)O)cc6)C(C)(C)[C@@H]5CC[C@]43C)[C@@H]12", "pEC50": "< 7.00"}, {"smiles": "C=C(C)[C@@H]1CC[C@]2(c3ncn(CCN4CCS(=O)(=O)CC4)n3)CC[C@]3(C)[C@H](CC[C@@H]4[C@@]5(C)CC=C(c6ccc(C(=O)O)cc6)C(C)(C)[C@@H]5CC[C@]43C)[C@@H]12", "pEC50": "< 7.00"}, {"smiles": "C=C(C)[C@@H]1CC[C@]2(C#Cc3ccsc3-c3nnn[nH]3)CC[C@]3(C)[C@H](CC[C@@H]4[C@@]5(C)CC=C(c6ccc(C(=O)O)cc6)C(C)(C)[C@@H]5CC[C@]43C)[C@@H]12", "pEC50": "> 7.00"}]}]}
